SMILES strings stand for the structures. A value given as a limit tells only on which side of the number the result lay.

For `CC(O)c1ccc(C2(C(C)(C)C)OCCO2)cc1` (stereo not given), the melting point was in the range of 67 to 70 °C.
In turn, `Oc1nc2ccc3nonc3c2nc1O` gave a melting point of more than 300 °C.
As for `CC(C)(C)C(=O)c1c[nH]c2ncc(C3CC3)nc12`, the figure is 266 to 268 °C; as for `COc1ccc(-c2ccc(C=O)cc2)cc1OC1CCCC1`, 86.5 to 87.5 °C.
As for `Cc1nn(-c2ccc(F)cc2)cc1C(=O)Nc1ccc(OCC(C)C)c(C#N)c1`, the figure is 179 to 180 °C; as for `CCP(=O)(CC)C(O)[C@H](CC1CCCCC1)NC(=O)[C@H](CC(C)C)NC(=O)[C@H](Cc1ccccc1)NC(=O)C1CCCC1` (stereo not given in full), 170 to 171 °C; as for `CC(C)(C)OC(=O)[C@H]1CC[C@@H](c2ccccc2)N1C(=O)CNC(=O)Nc1cccc(CO)c1` (racemic), 168 °C.
Next, `O=C(O)c1cccc(-c2cccc3cc(Cc4cccc(F)c4)oc23)c1`: 135 to 136 °C; `Cc1c(NC(=O)c2ccc(OC[C@@H]3CCCO3)cc2)ccc2cc(CN[C@H](C)C(C)(C)C)cnc12`: 140 to 141 °C.
In turn, `N#CC1(c2cccc3ccccc23)CCC(=O)CC1` registered a melting point of 166 to 167 °C.
Next, `Cc1c(C)c2c(c(C)c1NC(=O)CC(C)(C)C)C(c1ccc(C(C)CCO)cc1)CO2` (stereo not given): 145 to 147 °C; `c1ccc2c(c1)Nc1cc(-c3csc(CN4CCCCC4)n3)ccc1S2`: 186 to 188 °C; `CCOC(=O)CCc1c(-c2cc(Cl)ccc2OC)c2cc(C(F)(F)F)ccc2[nH]c1=O`: 193 to 195 °C.
`O=C1N(c2c(Cl)cccc2Cl)Cc2cnc(Nc3ccccc3)nc2N1c1ccccc1` displayed a melting point of 138 °C.
As for `CC(C)n1nc(-c2sc(NC(=O)Cn3ccnc3)nc2-c2ccccc2)ccc1=O`, the figure is 160 to 161 °C.
Next, `Cc1c(NC(=O)CC(C)(C)C)c(C)c2c(c1-c1ccco1)OC[C@@H]2c1ccc(C(C)C)cc1`: 214 to 217 °C.
As for `O=C(O)c1cccc(COc2ccccc2Cl)c1OCc1ccccc1Cl`, the figure is 96 to 98 °C.
`Cc1ccc2c(c1Cl)C(=O)N(C1(C(N)=O)CCCCC1)C2=O` registered a melting point of 192 to 208 °C.
In turn, `N#Cc1ccccc1-c1ccc(CBr)c(Br)c1` had a melting point of 152 to 153 °C.
Next, `Cn1c(=O)nc(-c2ccccc2)c2c3c(sc21)CCCC3`: 215 to 216 °C; `CCCCCC(=O)CCc1ccc(CCCCCCCC(=O)O)o1`: 64 to 65 °C; `N#Cc1ccc(N2C[C@@H]3[C@H](O)CCN3C2=O)c2ccccc12`: 226 to 228 °C.
As for `COC(=O)Nc1nc2ccc(Sc3ccccc3)cn2c1CN1CCOCC1`, the figure is 158 to 182 °C; as for `ON=Cc1ccc(-c2ccc(O)cc2)c2ccccc12`, 200 °C.
Next, `COC(=O)CCCCCCCCOC1OC(CO)C(O)C(OC2OC(CO)C(O)C(O)C2O)C1NC(C)=O` (stereo not given): 208 to 210 °C; `COc1c(C)cc(C(=O)c2cc(-c3ccc(Cl)cc3)c(N3CCOCC3)s2)nc1C`: 160 °C; `O=C(Cn1ccnc1)c1ccccc1`: 121 to 122 °C.
Turning to `CC(Cn1ncc2ccc3c(c21)NC(=O)CO3)NC(=O)OC(C)(C)C` (stereo not given), the melting point lay in the range of 147 to 148 °C.
On to `CS(=O)(=O)OCCNC(=O)C(O)C(Oc1ccccc1[N+](=O)[O-])c1ccccc1` (stereo not given), for which the melting point fell in the range of 122 to 125 °C.
Turning to `CNc1ccc2[nH]c3cc(-c4ccccc4Cl)c4c(c3c2c1)C(=O)NC4=O`, the melting point was in the range of 182 to 184 °C.
On to `CCC(COC)n1cc(Cl)nc(N2CCc3cc(OC)cc(Cl)c32)c1=O` (stereo not given), for which the melting point is 126 to 128 °C.
Next, `CNC(=O)C1=CC(C)(C(F)(F)F)Oc2ccc([N+](=O)[O-])cc21` (stereo not given): 196 to 197 °C; `CCCCCCCCOc1ccc(C(=O)Oc2ccc(C(=O)O)c(F)c2)cc1`: 147 to 148 °C.
In turn, `CCCCc1nc2cncnc2[nH]1` showed a melting point of 168 °C.
Next, `CC(C)(C)c1nnc(NN)s1`: 111 to 112 °C.

These data come from a melting point compilation (Tetko et al.; mined from patent text by program, amines drawn as free bases though some values may be those of a salt).
